Results from patent US10428104B2, “Substituted nucleoside derivatives useful as anticancer agents” (Pfizer Inc., priority 2015, dated 2019).

Target: PRMT5/MEP50 protein complex (Homo sapiens (Human), UniProt O14744)
Assay: PRMT5 biochemical assay (3H-SAM methylation of H4(1-21) peptide, filter plate scintillation counting)
Settings: PRMT5 enzyme inhibition; 10 nM PRMT5/MEP50 complex, 200 nM H4(1-21) peptide, 1 uM SAM, 25 minute incubation at room temperature
Method: Following dilution, 1 ul was added to an empty 96-well microtiter plate. PRMT5/MEP50 protein complex was combined with H4(1-21) peptide ([…]) in PRMT5 assay buffer (50 mM Tris pH 8.5, 50 mM NaCl, 5 mM MgCl2, 1 mM EDTA, 1 mM TCEP) and 44 ul was added to the microtiter plate containing compound. S-Adenosyl-L-methionine (SAM) was prepared by combining ^3H labelled SAM with unlabelled SAM in PRMT5 assay buffer such that the final SAM concentration was 10 uM and the specific activity was 0.2 uCi/ul. The reaction was initiated by adding 5 ul of SAM stock to the microtiter plate. The final reaction conditions were 10 nM PRMT5/MEP50 complex, 200 nM peptide and 1 uM SAM. Following a 25 minute incubation at room temperature, the reaction was stopped with the addition of 100 uL of 20% TCA. The 3H-peptide product was captured using a 96-well filter plate (MSIPN4B, Millipore) and washed 5 times with PBS buffer. Scintillation fluid (100 ul) was added to the dried filter plate and counted in a liquid scintillation counter. IC50 values were determined by fitting the data to the standard 4-parameter dose response equation using Pfizer proprietary software.
In the final construct PRMT5 ORF was under control of polyhedrin promoter (polH) while MEP50 ORF was under control of p10 promoter.
Viruses were generated using standard Bac-to-Bac viral generation protocols (Life Technologies) and amplified to high-titer passage two (P2) stocks. Protein over expression was conducted in exponentially growing Sf21 cells infected at 2×106 with P2 viral stock at MOI=1 of PRMT5-Mep50 dual construct virus and Mep50 construct virus at 1:1 ratio. The co-expression protocol was used to supplement additional Mep50 for FlagPRMT5-Mep50 heterodimer formation. Cells were harvested at 72 h post infection by centrifugation and frozen pellet was stored at −80° C.
FlagPRMT5-Mep50 complex was purified from cell lysate using Flag affinity chromatography. Cell were lyzed in 50 mM Tris 7.5, 200 mM NaCl, 10% glycerol, 0.25 mM TCEP supplemented with EDTA-free protease inhibitor cocktail (Roche). 1.5 ml of lysis buffer was added per 1 g of frozen pellet. The clarified lysate was obtained by centrifugation of cell lysate at 10,000 g for 1 h at 4 C. 5 ml of Anti-FLAG M2 Agarose (Sigma) […] was added to the clarified lysate to isolate FlagPRMT5-Mep50. Following batch binding for 3 h at 4 C, Flag resin bound to FlagPRMT5-Mep50 washed with 20 column volumes (CV) of 50 mM Tris 7.5, 200 mM NaCl, 10% glycerol, 0.25 mM TCEP followed by elution of FlagPRMT5-Mep50 complex using 3 CV of 50 mM Tris 7.5, 200 mM NaCl, 10% glycerol, 0.25 mM TCEP supplemented with 200 ug/ml of FLAG Peptide ([…]). […] Peak fractions containing FlagPRMT5-Mep50 complex were concentrated to 1.6 mg/ml, flash frozen in small aliquots using liquid nitrogen and stored at −80° C.

PRMT5/MEP50 protein complex, sequence (O14744 other isoform, or with tags, fused parts or gaps): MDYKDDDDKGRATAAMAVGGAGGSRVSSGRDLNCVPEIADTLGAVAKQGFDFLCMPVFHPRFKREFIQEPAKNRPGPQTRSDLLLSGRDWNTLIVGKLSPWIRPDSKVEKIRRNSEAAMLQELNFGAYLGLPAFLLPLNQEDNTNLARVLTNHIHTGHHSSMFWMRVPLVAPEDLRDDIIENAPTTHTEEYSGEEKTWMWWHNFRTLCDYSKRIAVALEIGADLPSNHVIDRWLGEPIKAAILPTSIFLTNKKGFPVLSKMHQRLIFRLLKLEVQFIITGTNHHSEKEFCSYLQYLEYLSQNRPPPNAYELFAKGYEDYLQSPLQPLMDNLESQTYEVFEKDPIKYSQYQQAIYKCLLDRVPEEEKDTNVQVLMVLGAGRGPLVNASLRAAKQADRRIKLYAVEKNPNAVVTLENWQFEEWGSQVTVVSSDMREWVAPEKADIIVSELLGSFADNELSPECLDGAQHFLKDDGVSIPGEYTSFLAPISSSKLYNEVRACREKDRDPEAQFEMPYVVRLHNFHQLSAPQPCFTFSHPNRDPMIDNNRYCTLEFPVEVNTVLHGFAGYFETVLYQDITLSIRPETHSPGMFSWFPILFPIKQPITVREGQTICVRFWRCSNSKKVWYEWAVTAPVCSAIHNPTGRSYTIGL
PRMT5/MEP50 protein complex, sequence (Q9BQA1 whole entry partner): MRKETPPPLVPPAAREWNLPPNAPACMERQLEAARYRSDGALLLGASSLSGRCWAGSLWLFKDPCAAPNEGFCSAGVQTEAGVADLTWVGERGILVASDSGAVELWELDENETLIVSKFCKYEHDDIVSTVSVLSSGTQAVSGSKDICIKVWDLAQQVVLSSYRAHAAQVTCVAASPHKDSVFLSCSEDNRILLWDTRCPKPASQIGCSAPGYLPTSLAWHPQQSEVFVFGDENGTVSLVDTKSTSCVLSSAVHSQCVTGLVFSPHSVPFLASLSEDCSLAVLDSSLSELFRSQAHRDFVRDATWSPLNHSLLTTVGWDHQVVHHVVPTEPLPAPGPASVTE

Row | SMILES | IC50 [nM]
1 | O[C@@H]1[C@H](O)[C@@H]([C@H](O)c2ccc(F)cc2)O[C@H]1n1ccc2c(C(F)F)ncnc21 [Example 96, (2R,3R,4S,5R)-2-(4-(difluoromethyl)-7H-pyrrolo[2,3-d]pyrimidin-7-yl)-5-((R)-(4-fluorophenyl)(hydroxy)methyl)tetrahydrofuran-3,4-diol] | 51
2 | Cc1ncnc2c1ccn2[C@@H]1O[C@H](C(=O)c2ccc(F)c(F)c2)[C@@H](O)[C@H]1O [Example 91, (3,4-difluorophenyl)((2S,3S,4R,5R)-3,4-dihydroxy-5-(4-methyl-7H-pyrrolo[2,3-d]pyrimidin-7-yl)tetrahydrofuran-2-yl)methanone] | 355
3 | C[C@](O)(c1ccc(F)c(F)c1)[C@H]1O[C@@H](n2ccc3c(N)ncnc32)[C@H](O)[C@@H]1O [Example 104, (2R,3R,4S,5S)-2-(4-amino-7H-pyrrolo[2,3-d]pyrimidin-7-yl)-5-((S)-1-(3,4-difluorophenyl)-1-hydroxyethyl)tetrahydrofuran-3,4-diol] | 147
4 | Nc1ncnc2c([C@@H]3O[C@H]([C@H](O)c4ccc(F)cc4)[C@@H](O)[C@H]3O)scc12 [Example 102, (2R,3R,4S,5R)-2-(4-aminothieno[3,4-d]pyrimidin-7-yl)-5-((R)-(4-fluorophenyl)(hydroxy)methyl)tetrahydrofuran-3,4-diol] | 304
5 | CCC[C@H](O)[C@H]1O[C@@H](n2cnc3c(N)ncnc32)[C@H](O)[C@@H]1O [Example 6, (2R,3R,4S,5R)-2-(6-amino-9H-purin-9-yl)-5-((S)-1-hydroxybutyl)tetrahydrofuran-3,4-diol] | 21100
6 | Cc1nc(N)nc2c1ccn2[C@@H]1O[C@@H](c2ccccc2)[C@@H](O)[C@H]1O [Example 68, (2R,3R,4S,5S)-2-(2-amino-4-methyl-7H-pyrrolo[2,3-d]pyrimidin-7-yl)-5-phenyltetrahydrofuran-3,4-diol] | 5500
7 | Nc1ncnc2c1c(F)cn2[C@@H]1O[C@@H](c2ccccc2)[C@@H](O)[C@H]1O [Example 67, (2R,3R,4S,5S)-2-(4-amino-5-fluoro-7H-pyrrolo[2,3-d]pyrimidin-7-yl)-5-phenyltetrahydrofuran-3,4-diol] | 1560
8 | Nc1ncnc2c([C@@H]3O[C@H]([C@H](O)c4ccc(F)cc4)[C@@H](O)[C@H]3O)coc12 [Example 80, (2S,3R,4S,5R)-2-(4-aminofuro[3,2-d]pyrimidin-7-yl)-5-((R)-(4-fluorophenyl)(hydroxy)methyl)tetrahydrofuran-3,4-diol] | 32
9 | OCc1ncnc2c1ccn2[C@@H]1O[C@H]([C@H](O)c2ccc(F)c(F)c2)[C@@H](O)[C@H]1O [Example 108, (2R,3S,4R,5R)-2-((R)-(3,4-difluorophenyl)(hydroxy)methyl)-5-(4-(hydroxymethyl)-7H-pyrrolo[2,3-d]pyrimidin-7-yl)tetrahydrofuran-3,4-diol] | 50
10 | Cc1ncnc2c1ccn2[C@@H]1OC(C(F)(F)c2ccc(F)cc2)[C@@H](O)[C@H]1O (stereo partly drawn) [Example 59, (3S,4R,5R)-2-(difluoro(4-fluorophenyl)methyl)-5-(4-methyl-7H-pyrrolo[2,3-d]pyrimidin-7-yl)tetrahydrofuran-3,4-diol] | 491
11 | CC[C@@H](O)[C@H]1O[C@@H](n2cnc3c(N)ncnc32)[C@H](O)[C@@H]1O [Example 3, (2R,3R,4S,5R)-2-(6-amino-9H-purin-9-yl)-5-((R)-1-hydroxypropyl)tetrahydrofuran-3,4-diol] | 333

Continued, values first:

Row | IC50 [nM] | SMILES
12 | 1740 | Cc1ncnc2c1ccn2[C@@H]1O[C@H]([C@H](C)O)[C@@H](O)[C@H]1O [Example 45, (2R,3S,4R,5R)-2-((S)-1-hydroxyethyl)-5-(4-methyl-7H-pyrrolo[2,3-d]pyrimidin-7-yl)tetrahydrofuran-3,4-diol]
13 | 793 | Cc1ncnc2c1ccn2[C@@H]1O[C@H]([C@H](O)c2ccc3c(c2)ncn3C(F)F)[C@@H](O)[C@H]1O [Example 23, (2R,3S,4R,5R)-2-((R)-(1-(difluoromethyl)-1H-benzo[d]imidazol-5-yl)(hydroxy)methyl)-5-(4-methyl-7H-pyrrolo[2,3-d]pyrimidin-7-yl)tetrahydrofuran-3,4-diol]
14 | 108 | Cc1ncnc2c1ccn2[C@@H]1O[C@H]([C@H](O)c2ccc3ncn(C(F)F)c3c2)[C@@H](O)[C@H]1O [Example 22, (2R,3S,4R,5R)-2-((R)-(1-(difluoromethyl)-1H-benzo[d]imidazol-6-yl)(hydroxy)methyl)-5-(4-methyl-7H-pyrrolo[2,3-d]pyrimidin-7-yl)tetrahydrofuran-3,4-diol]
15 | 61700 | Cc1ncnc2c1ccn2[C@@H]1O[C@H]([C@@H](O)CCc2ccccc2)[C@@H](O)[C@H]1O [Example 31, (2R,3S,4R,5R)-2-((S)-1-hydroxy-3-phenylpropyl)-5-(4-methyl-7H-pyrrolo[2,3-d]pyrimidin-7-yl)tetrahydrofuran-3,4-diol]
16 | 37500 | Cc1ncnc2c1ccn2[C@@H]1O[C@H]([C@@H](O)C(C)C)[C@@H](O)[C@H]1O [Example 49, (2R,3S,4R,5R)-2-((S)-1-hydroxy-2-methylpropyl)-5-(4-methyl-7H-pyrrolo[2,3-d]pyrimidin-7-yl)tetrahydrofuran-3,4-diol]
17 | 33 | Cc1ncnc2c1ccn2[C@@H]1O[C@H]([C@H](O)c2ccc3occ(C(F)F)c3c2)[C@@H](O)[C@H]1O [Example 21, (2R,3S,4R,5R)-2-((R)-(3-(difluoromethyl)benzofuran-5-yl)(hydroxy)methyl)-5-(4-methyl-7H-pyrrolo[2,3-d]pyrimidin-7-yl)tetrahydrofuran-3,4-diol]
18 | 1260 | Cc1ncnc2c1ccn2[C@@H]1O[C@H]([C@H](O)C2CCC2)[C@@H](O)[C@H]1O [Example 52, (2R,3S,4R,5R)-2-((R)-cyclobutyl(hydroxy)methyl)-5-(4-methyl-7H-pyrrolo[2,3-d]pyrimidin-7-yl)tetrahydrofuran-3,4-diol]
19 | 21700 | Cc1ncnc2c1ccn2[C@@H]1O[C@@H]([C@@H](O)c2ccc(F)cc2)[C@@H](O)[C@H]1O [Example 75, (2S,3S,4R,5R)-2-((S)-(4-fluorophenyl)(hydroxy)methyl)-5-(4-methyl-7H-pyrrolo[2,3-d]pyrimidin-7-yl)tetrahydrofuran-3,4-diol]
20 | 1810 | Cc1ncnc2c1ccn2[C@@H]1O[C@@H]([C@H](O)c2ccc(F)cc2)[C@@H](O)[C@H]1O [Example 76, (2S,3S,4R,5R)-2-((R)-(4-fluorophenyl)(hydroxy)methyl)-5-(4-methyl-7H-pyrrolo[2,3-d]pyrimidin-7-yl)tetrahydrofuran-3,4-diol]
21 | 367 | Cc1ncnc2c1ccn2[C@@H]1O[C@H]([C@H](O)C2CC2)[C@@H](O)[C@H]1O [Example 46, (2R,3S,4R,5R)-2-((R)-cyclopropyl(hydroxy)methyl)-5-(4-methyl-7H-pyrrolo[2,3-d]pyrimidin-7-yl)tetrahydrofuran-3,4-diol]
22 | 39 | Cc1ncnc2c1ccn2[C@@H]1O[C@H]([C@H](O)c2ccc3cnn(C)c3c2)[C@@H](O)[C@H]1O [Example 15, (2R,3S,4R,5R)-2-((R)-hydroxy(1-methyl-1H-indazol-6-yl)methyl)-5-(4-methyl-7H-pyrrolo[2,3-d]pyrimidin-7-yl)tetrahydrofuran-3,4-diol]
23 | 3850 | CC[C@H](O)[C@H]1O[C@@H](n2ccc3c(C)ncnc32)[C@H](O)[C@@H]1O [Example 41, (2R,3S,4R,5R)-2-((S)-1-hydroxypropyl)-5-(4-methyl-7H-pyrrolo[2,3-d]pyrimidin-7-yl)tetrahydrofuran-3,4-diol]
24 | 90 | Cc1ncnc2c1ccn2[C@@H]1O[C@H](Cc2ccc(F)cc2)[C@@H](O)[C@H]1O [Example 100, (2R,3S,4R,5R)-2-(4-fluorobenzyl)-5-(4-methyl-7H-pyrrolo[2,3-d]pyrimidin-7-yl)tetrahydrofuran-3,4-diol]
